From patent publication US20060134801A1, “Methods and compositions involving MDA-7” (Board of Regents, The University of Texas System, priority 2003, published 2006)
Each block holds one molecule with its values, some of them ahead of it.

How the values were obtained:
HUVEC = test: Endothelial cell differentiation (tube formation) assay on Matrigel; assay type: cell-based, human; details: for concentration required to significantly inhibit HUVEC tube formation: equimolar comparison; for tube formation in the presence of IL-22R1 antibody: high concentrations, vs PBS
Experimental: Endothelial cell differentiation (tube formation) assays were done using the in vitro angiogenesis assay kit (Chemicon, Temecula, Calif.). Briefly, HUVEC and HMVEC were grown to 80% confluency, collected, resuspended in growth medium, and plated at a concentration of 2−10^4 cells/well in a 96-well plate coated with Matrigel (Chemicon, Temecula, Calif.). Cells were treated with sMDA-7 protein (1, 5, 10, and 50 ng/ml), or a preparation immunodepleted of sMDA protein for 24 h at 37° C. Cells treated with PBS served as negative controls in these experiments. The ability of sMDA-7 to inhibit tube formation was determined and quantitated by counting the number of tubes under bright-field microscopy.
For experiments involving comparative studies, cells were treated with equimolar concentrations of sMDA-7 (5, 10, and 300 ng/ml), recombinant human endostatin (5.2, 10.4, and 315 ng/ml; Calbiochem, La Jolla, Calif.), recombinant IFN-γ (4.5, 9, and 268 ng/ml; R&D systems, Minneapolis, Minn.) or recombinant IP-10 (2.4, 4.5, and 134 ng/ml; R&D systems, Minneapolis, Minn.) and analyzed for tube formation assay as described above. All samples were tested in duplicate. Experiments were repeated at least 5-6 times.
For receptor blocking studies, HUVEC grown in six-well plates were pretreated with IL-22R1 blocking antibody (1 ng/ml and 5 ng/ml). Following overnight incubation, cells were harvested, washed, and plated in Matrigel coated 96-well plates. Fresh IL-22R1 blocking antibody and sMDA-7 was added to the wells in a 1:1 ratio (1 ng/ml of IL-22R1 antibody:1 ng/ml of sMDA-7) or 1:5 ratio (1 ng/ml of IL-22R1 antibody:5 ng/ml of sMDA-7) and incubated at 37° C. After overnight incubation, the plates were examined for tube formation. All other experimental procedures were the same as described above. […] The relative amount of IL-22R1 used for experiments involving endostatin was 315 ng/ml (1:1 ratio) and 134 ng/ml for experiments involving IP-10 (1:1 ratio). All other experimental procedures were the same as described previously. For blocking studies using anti-IP-10 or anti-IFN-γ neutralizing antibodies (R & D Systems), experiments were conducted as described above for receptor studies except that HUVEC were treated with the appropriate neutralizing antibody (1 μg and 5 μg/ml) prior to treatment with sMDA-7 (300 ng/ml).

A549 cells = test: Radiation clonogenic survival assay; assay type: cell-based, human; details: A549 and H1299
Experimental: In vitro transfection studies for all cell lines were performed by plating 2×10^5 cells in T25 flasks. Forty-eight hours after plating, cells were incubated for 1 hour with purified vector in 1 ml of medium without serum. After 1 hour, fresh medium supplemented with 10% FBS was added to the flask. Serum-free medium was used for mock transfection.
The effectiveness of treatments was assessed by clonogenic assays. Briefly, monolayers of A549, H1299, CCD-16, and MRC-9 cells were treated in T25 flasks as described above, and after various doses of irradiation the cells were trypsinized and counted. Known numbers of cells were then replated in 100 mm culture dishes and returned to the incubator to allow macroscopic colony development.

MDA-7 expression in PBMC = MDA-7 expression in PBMC (real time RT-PCR, intracellular FACS); assay type: cell-based, human; details: 100 U/ml; 6 hr; resting PBMC
Experimental: Cells were isolated at the designated times and protein levels measured and RNA isolated. Real time RT-PCR was performed using TaqMan OneStep procedure according to the manufacturers protocol (Applied Biosystems, Foster City Calif.). Gene specific primer/probes for MDA-7 and HPRT were purchased from Applied Biosystems. The reactions were carried out according to manufacturer's protocol using an ABI Prism 7900 HT sequence detection system and the analysis was conducted using Sequence Detection Software version 2.9. MDA-7 protein was detected by intracellular FACs analysis. Cells were treated with Brefeldin A at 10 μg/ml 4 hr prior to harvest to prohibit secretion of the cytokine. Where applicable cells were first surface stained using directly conjugated antibodies and then, to detect intracellular proteins, cells were fixed by treatment with 4% paraformaldehyde and then permeabilized with detergent, n-octyl glucopyranoside at 7 mg/ml. As the control for permeabilization, cells were also stained with a monoclonal antibody directed against the intracellular protein vimentin. Standard protocols were followed for immunofluorescence staining. Immunofluorescence was analyzed on a FACSCalibur with Cell Quest software (BD Immunosciences).
To determine what cytokines may be driving this expression, PBMC were stimulated with IL-2, a major cytokine produced during PHA activation. […]

HUVECs = test: Clonogenic survival of endothelial cells after irradiation; assay type: cell-based, human; details: MDA-7 protein 10 ng/ml; angiostatin, endostatin 100 ng/ml; 12 h before irradiation
Experimental: Twelve hours after seeding HUVECs in 4-well plates (Nunc, Roskilde, Denmark), medium was replaced with serum/growth factor-free medium. After serum/growth factor starvation for 12 hours, cells were treated with complete medium containing either MDA-7 protein (10 ng/ml) (removed from cultures of 293 cells), angiostatin (100 ng/ml), or endostatin (100 ng/ml). Twelve hours later, cells were irradiated with ^137CS unit (3.4 Gy/min) at room temperature, trypsinized and counted. Known numbers of cells were replated in 60 mm culture dishes and incubated to allow macroscopic colony development. Colonies were counted after 14 days, and the percent plating efficiency and surviving fractions following given treatments were calculated based on the survival of non-irradiated cells.

IL-22R1 on HUVEC = molecular target: T1, IL-22R1 on HUVEC (human, UniProt Q8N6P7 16-574); test: cell-based or functional assay
T1 sequence (looked up): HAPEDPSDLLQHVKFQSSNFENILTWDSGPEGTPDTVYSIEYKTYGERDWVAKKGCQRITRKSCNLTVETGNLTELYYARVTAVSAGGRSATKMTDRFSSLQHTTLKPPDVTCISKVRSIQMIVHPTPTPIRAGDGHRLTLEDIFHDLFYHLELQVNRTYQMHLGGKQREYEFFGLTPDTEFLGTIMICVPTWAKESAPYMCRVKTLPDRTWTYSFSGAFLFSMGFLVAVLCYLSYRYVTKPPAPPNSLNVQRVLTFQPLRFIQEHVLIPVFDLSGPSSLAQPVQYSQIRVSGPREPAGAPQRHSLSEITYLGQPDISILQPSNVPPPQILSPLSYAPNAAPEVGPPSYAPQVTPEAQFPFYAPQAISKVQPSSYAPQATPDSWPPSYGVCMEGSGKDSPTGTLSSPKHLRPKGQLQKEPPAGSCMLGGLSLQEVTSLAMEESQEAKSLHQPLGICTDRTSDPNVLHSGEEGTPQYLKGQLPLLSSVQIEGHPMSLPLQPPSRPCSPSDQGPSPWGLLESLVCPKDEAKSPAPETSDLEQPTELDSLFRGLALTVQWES

Molecule: IFN-γ: recombinant IFN-γ (R&D systems)
concentration required to significantly inhibit HUVEC tube formation (HUVEC): 268 ng/mL

Molecule: COC(=O)Nc1nc2ccc(C(=O)c3cccs3)cc2[nH]1 [Nocodazole]
radiosensitivity after G2/M arrest (A549 cells; 200 ng/ml): does not enhance the radiosensitivity

Molecule: COc1cc(/C=C/C(=O)CC(=O)/C=C/c2ccc(O)c(OC)c2)ccc1O [curcumin, Curcumin]
Ad-mda7 radiosensitization (A549 cells; 10 μM): abrogated

Molecule: IP-10: recombinant IP-10 (R&D systems)
concentration required to significantly inhibit HUVEC tube formation (HUVEC): 134 ng/mL | tube formation in the presence of IL-22R1 antibody (HUVEC): significantly inhibited

Molecule: IL-15: cytokine
expression of MDA-7 mRNA and protein (MDA-7 expression in PBMC): stimulated

Molecule: angiostatin
radiosensitization of HUVECs (HUVECs): produced radiosensitizing effects

Molecule: endostatin
inhibition of tube formation over control (HUVEC; 315 ng/ml): 40-50% | concentration required to significantly inhibit HUVEC tube formation (HUVEC): 300 ng/mL | tube formation in the presence of IL-22R1 antibody (HUVEC): significantly inhibited | radiosensitization of HUVECs (HUVECs): produced radiosensitizing effects

B1: IL-7: cytokine (protein, UniProt P13232 26-177, looked up)
Interleukin-7: DCDIEGKDGKQYESVLMVSIDQLLDSMKEIGSNCLNNEFNFFKRHICDANKEGMFLFRAARKLRQFLKMNSTGDFDLHLLKVSEGTTILLNCTGQVKGRKPAALGEAQPTKSLEENKSLKEQKKLNDLCFLKRLLQEIKTCWNKILMGTKEH
expression of MDA-7 mRNA and protein (MDA-7 expression in PBMC): stimulated

HUVEC tube formation with sMDA-7 (5 ng/ml), restoration by 1 ng/ml IL-22R1 blocking antibody (1:5 ratio) (IL-22R1 on HUVEC): < 60% | HUVEC tube formation with sMDA-7 (5 ng/ml), restoration by 5 ng/ml IL-22R1 blocking antibody (1:1 ratio) (IL-22R1 on HUVEC): > 90%
B2: secreted MDA-7 protein (soluble, glycosylated, produced by stably transfected 293 cells) (ligand)
chain: AQGQEFHFGPCQVKGVVPQKLWEAFWAVKDTMQAQDNITSARLLQQEVLQNVSDAESCYLVHTLLEFYLKTVFKNYHNRTVEVRTLKSFSTLANNFVLIVSQLQPSQENEMFSIRDSAHRRFLLFRRAFKQLDVEAALTKALGEVDILLTWMQKFYKL
modifications: glycosylated (sites not given)
